Assay results taken from ChEMBL document CHEMBL3714742, “Pyrimido (4,5-b) indole derivatives” (2003).
Activity calls are given as the source filed them. The rule behind the calls is not given here.

Key:
Mus musculus [1] = experiment: Inhibition of anti-CD3 antibody-induced IL2 production in Balb/c mouse dosed intravenously 5 mins before anti-CD3 antibody injection and measured 2 hrs post-challenge by ELISA; format: functional, organism-based
Mus musculus [2] = experiment: Inhibition of anti-CD3 antibody-induced IL4 production in Balb/c mouse dosed intravenously 5 mins before anti-CD3 antibody injection and measured 2 hrs post-challenge by ELISA; format: functional, organism-based
[3] = target: T1, Dual specificity mitogen-activated protein kinase kinase 7 (Homo sapiens, UniProt O14733); experiment: Inhibition of GST-tagged human MKK7 expressed in Escherichia coli (BL21(DE3) pLysS) co-expressing human MEKK catalytic domain using biotinylated and GST-tagged rat GST-KN-SAPKalpha substrate incubated for 1 hr by time-resolved fluorescence based assay
T1 sequence (O14733 whole entry): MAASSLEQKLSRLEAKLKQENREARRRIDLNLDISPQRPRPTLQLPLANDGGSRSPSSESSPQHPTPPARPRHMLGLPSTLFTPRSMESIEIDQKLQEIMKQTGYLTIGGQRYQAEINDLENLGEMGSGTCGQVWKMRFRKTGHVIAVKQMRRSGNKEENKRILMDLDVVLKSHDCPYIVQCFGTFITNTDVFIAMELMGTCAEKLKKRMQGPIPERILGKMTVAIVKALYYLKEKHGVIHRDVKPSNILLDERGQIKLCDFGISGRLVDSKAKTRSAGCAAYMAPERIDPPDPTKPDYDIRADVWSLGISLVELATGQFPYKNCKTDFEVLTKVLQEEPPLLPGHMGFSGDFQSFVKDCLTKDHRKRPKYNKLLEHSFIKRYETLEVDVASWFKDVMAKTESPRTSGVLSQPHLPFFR

Mus musculus [4] = experiment: Inhibition of anti-CD3 antibody-induced IFNgamma production in Balb/c mouse dosed intravenously 5 mins before anti-CD3 antibody injection and measured 2 hrs post-challenge by ELISA; format: functional, organism-based

Row | Compound | IC50 [3] [µM] | inhibition (Mus musculus [1]) | inhibition (Mus musculus [2]) | inhibition (Mus musculus [4])
1 | Oc1ccc2[nH]c3ncnc(N4CCCC(O)C4)c3c2c1 (stereo unspecified) | < 1 | Active | Active | Active
2 | CNc1nc(C)nc2[nH]c3ccc(O)cc3c12 | 1 | Active | Active | Active
3 | Nc1nc(NCc2ccccc2)c2c(n1)[nH]c1ccc(O)cc12 | < 1 | Active | Active | Active
4 | Cc1nc(NCCO)c2c(n1)[nH]c1ccc(O)cc12 | 1 | Active | Active | Active
5 | CC1CCN(c2nc(N)nc3[nH]c4ccc(O)cc4c23)CC1 | < 1 | Active | Active | Active
6 | Cc1nc(N2CCCCC2C)c2c(n1)[nH]c1ccc(O)cc12 (stereo unspecified) | < 1 | Active | Active | Active
7 | Cc1nc(N2CCCC(CO)C2)c2c(n1)[nH]c1ccc(O)cc12 (stereo unspecified) | < 1 | Active | Active | Active
8 | Cc1nc(N2CCCCCC2)c2c(n1)[nH]c1ccc(O)cc12 | < 1 | Active | Active | Active
9 | CCN(CC)c1nc(C)nc2[nH]c3ccc(O)cc3c12 | 1 | Active | Active | Active
10 | Cc1nc(N2CCCC(C)C2)c2c(n1)[nH]c1ccc(O)cc12 (stereo unspecified) | 1 | Active | Active | Active
11 | OCCC1CCCN(c2ncnc3[nH]c4ccc(O)cc4c23)C1 (stereo unspecified) | < 1 | Active | Active | Active
12 | Cc1nc(N2CCC(C)CC2)c2c(n1)[nH]c1ccc(O)cc12 | < 1 | Active | Active | Active
13 | Oc1ccc2[nH]c3ncnc(N4CCC(O)(Cc5ccccc5)CC4)c3c2c1 | < 1 | Active | Active | Active
14 | Oc1ccc2[nH]c3ncnc(N4CCCCC4)c3c2c1 | < 1 | Active | Active | Active
15 | Nc1nc(N2CCCC(O)C2)c2c(n1)[nH]c1ccc(O)cc12 (stereo unspecified) | < 1 | Active | Active | Active
16 | CN(Cc1ccccc1)c1nc(N)nc2[nH]c3ccc(O)cc3c12 | < 1 | Active | Active | Active
17 | COC1CCN(c2ncnc3[nH]c4ccc(O)cc4c23)CC1 | < 1 | Active | Active | Active
18 | Nc1nc(N2CCCCC2)c2c(n1)[nH]c1ccc(Cl)cc12 | 1 | Active | Active | Active
19 | Nc1nc(NC2CCCCC2)c2c(n1)[nH]c1ccc(O)cc12 | < 1 | Active | Active | Active
20 | Nc1nc(N2CCC(Br)CC2)c2c(n1)[nH]c1ccc(O)cc12 | < 1 | Active | Active | Active
21 | Nc1nc(NC2CCCC2)c2c(n1)[nH]c1ccc(O)cc12 | < 1 | Active | Active | Active
22 | Nc1nc(N2CCC(N3CCCC3)CC2)c2c(n1)[nH]c1ccc(O)cc12 | < 1 | Active | Active | Active
23 | CC1CCCN(c2nc(N)nc3[nH]c4ccc(O)cc4c23)C1 (stereo unspecified) | < 1 | Active | Active | Active
24 | COC1CCN(c2nc(N)nc3[nH]c4ccc(O)cc4c23)CC1 | < 1 | Active | Active | Active
25 | Oc1ccc2[nH]c3ncnc(N4CCCCCC4)c3c2c1 | < 1 | Active | Active | Active

More lines, main results first:

Row | IC50 [3] [µM] | Compound | inhibition (Mus musculus [1]) | inhibition (Mus musculus [2]) | inhibition (Mus musculus [4])
26 | < 1 | NC(=O)c1ccc2[nH]c3nc(N)nc(N4CCCCC4)c3c2c1 | Active | Active | Active
27 | < 1 | CC(O)CNc1ncnc2[nH]c3ccc(O)cc3c12 (stereo unspecified) | Active | Active | Active
28 | < 1 | CC(CO)Nc1ncnc2[nH]c3ccc(C(N)=O)cc3c12 (stereo unspecified) | Active | Active | Active
29 | < 1 | CC1CC(C)CN(c2ncnc3[nH]c4ccc(C(N)=O)cc4c23)C1 (stereo unspecified) | Active | Active | Active
30 | < 1 | Oc1ccc2[nH]c3ncnc(NC4CCCCCC4)c3c2c1 | Active | Active | Active
31 | < 1 | NCCCNc1ncnc2[nH]c3ccc(C(N)=O)cc3c12 | Active | Active | Active
32 | < 1 | NC(=O)c1ccc2[nH]c3ncnc(N4CCOCC4)c3c2c1 | Active | Active | Active
33 | < 1 | NC(=O)C1CCN(c2ncnc3[nH]c4ccc(O)cc4c23)CC1 | Active | Active | Active
34 | < 1 | Oc1ccc2[nH]c3ncnc(N[C@H]4CC[C@H](O)CC4)c3c2c1 | Active | Active | Active
35 | < 1 | OCC1CCCCN1c1ncnc2[nH]c3ccc(O)cc3c12 (stereo unspecified) | Active | Active | Active
36 | < 1 | NC(=O)c1ccc2[nH]c3ncnc(N4CCCCC4)c3c2c1 | Active | Active | Active
37 | < 1 | NC(=O)c1ccc2[nH]c3ncnc(N4CCC(C(=O)O)CC4)c3c2c1 | Active | Active | Active
38 | < 1 | Oc1ccc2[nH]c3ncnc(NC4CCCCC4)c3c2c1 | Active | Active | Active
39 | < 1 | CC(=O)NC1CCN(c2ncnc3[nH]c4ccc(C(N)=O)cc4c23)CC1 | Active | Active | Active
40 | < 1 | NC(=O)c1ccc2[nH]c3ncnc(N4CCCC4)c3c2c1 | Active | Active | Active
41 | < 1 | OC[C@@H]1CCCN1c1ncnc2[nH]c3ccc(O)cc3c12 | Active | Active | Active
42 | < 1 | CN(CCO)c1ncnc2[nH]c3ccc(C(N)=O)cc3c12 | Active | Active | Active
43 | < 1 | NC(=O)c1ccc2[nH]c3ncnc(NC4CCCCCC4)c3c2c1 | Active | Active | Active
44 | < 1 | OCCNc1ncnc2[nH]c3ccc(O)cc3c12 | Active | Active | Active
45 | < 1 | CC1CCCN(c2ncnc3[nH]c4ccc(C(N)=O)cc4c23)C1 (stereo unspecified) | Active | Active | Active
46 | < 1 | OCC1(Nc2ncnc3[nH]c4ccc(O)cc4c23)CCCC1 | Active | Active | Active
47 | < 1 | CN(C)c1ncnc2[nH]c3ccc(O)cc3c12 | Active | Active | Active
48 | < 1 | NCCNc1ncnc2[nH]c3ccc(O)cc3c12 | Active | Active | Active
49 | < 1 | COCCNc1ncnc2[nH]c3ccc(O)cc3c12 | Active | Active | Active
